The results in this text go back to US10653651B2, “Kit for treating cancer with low molecular weight components of aurin tricarboxylic acid complex” (Aurin Biotech Inc., priority 2014, dated 2020).

Assay type in all cases: cell-based, human
Assay [1] deals with Factor H. Nature of the assay: Western blot of Factor H expression in U251 cells. The settings on record: 10 μM, 1 day, cell extract. Here is the method: (§1) Experiment 2 was designed to determine the effect of ATA, AQA, and AHA on the expression and release of Factor H and VEGF by U251 cells. Cells were grown in DMEM for 24 h at 37° C., after which ATA, AQA, or AHA was added to the medium at a final concentration of 10 μM and incubation carried out for a further 24 h. The medium was drawn off, and the cells washed with PBS. Lysis buffer was then added to the cells. Forty microliters of the cell lysate, or the supernatant media, were loaded onto 12% polyacrylamide gels and separated under non-reducing conditions (70 V, 3-6 h). Following SDS-PAGE, proteins were transferred to a PVDF membrane (Bio-RadTM, CA) at 30 mA for 2 h. The membranes were blocked with 5% milk in PBS-T (80 mM Na2HPO4, 20 mM NaH2PO4, 100 mM NaCl, 0.1% Tween 20, pH 7.4) for 1 h, and incubated overnight at 4° C. with primary antibodies for Factor H (CytotechTM, goat 1/1000) and for VEGF (MilliporeTM, rabbit 1/2000). The membranes were then washed 3 times with PBST. They were then treated with an appropriate horseradish peroxidase (HRP)-conjugated secondary antibody for 3 h at room temperature. The secondary antibodies were anti-rabbit IgG (P0448, DAKOTM, Mississauga, Ontario, CA, 1/2,000) and anti-goat IgG (A[…], MilliporeTM, Billerica, Ma, 1/3,000). […]
In general terms: A western blot detects proteins with antibodies after separation by electrophoresis.

In assay [2] the test system is Factor H. The experiment in a line: Western blot of Factor H expression in BxPC-3 cells. The settings on record: 10 μM, 1 day, cell extract. The protocol: as §1
The next assay concerns VEGF. Nature of the assay: Western blot of VEGF expression and release by A549 cells. The settings on record: 10 μM, 1 day; for expression of vascular endothelial growth factor (VEGF) in A549 cells: cell extract; for release of VEGF into the extracellular milieu by A549 cells: supernatant. The protocol: Experiment 2 was designed to determine the effect of ATA, AQA, and AHA on the expression and release of Factor H and VEGF by U251 cells. Cells were grown in DMEM for 24 h at 37° C., after which ATA, AQA, or AHA was added to the medium at a final concentration of 10 μM and incubation carried out for a further 24 h. The medium was drawn off, and the cells washed with PBS. Lysis buffer was then added to the cells. Forty microliters of the cell lysate, or the supernatant media, were loaded onto 12% polyacrylamide gels and separated under non-reducing conditions (70 V, 3-6 h). Following SDS-PAGE, proteins were transferred to a PVDF membrane (Bio-Rad™, CA) at 30 mA for 2 h. The membranes were blocked with 5% milk in PBS-T (80 mM Na2HPO4, 20 mM NaH2PO4, 100 mM NaCl, 0.1% Tween 20, pH 7.4) for 1 h, and incubated overnight at 4° C. with primary antibodies for Factor H (Cytotech™, goat 1/1000) and for VEGF (Millipore™, rabbit 1/2000). The membranes were then washed 3 times with PBST. They were then treated with an appropriate horseradish peroxidase (HRP)-conjugated secondary antibody for 3 h at room temperature. The secondary antibodies were anti-rabbit IgG (P0448, DAKO™, Mississauga, Ontario, CA, 1/2,000) and anti-goat IgG (AP106P, Millipore™, Billerica, Ma, 1/3,000). The bands were visualized with an enhanced chemiluminescence system and exposure to photographic film (Hyperfilm ECL™, Amersham™ Pharmacia Biotech, Little Chalfont, UK). For reprobing of membranes with an alternative antibody, the membranes were treated with 10 mL of stripping buffer (3 mL of 1 M Tris-HCl pH 6.7, 10 mL of 10% SDS, 347 μL of 14 M mercaptoethanol, and 36.5 mL deionized water) at 60° C. for 1 h. The membrane was then placed on a shaking incubator for 30 min to clear it of all bound antibodies. The stripped membrane was then treated with a different primary antibody as previously described.
Experiment 6 was designed to determine the effect of ATA, AQA, and AHA on the expression and release of Factor H and VEGF by BxPC-3 cells.
Experiment 10 was designed to determine the effect of ATA, AQA, and AHA on the expression and release of Factor H and VEGF by A549 cells. The protocol was identical to that used in Experiment 6 except A549 cells were used.

The test system of assay [3] is Factor H. Nature of the assay: Western blot of Factor H expression in A549 cells. As to conditions: 10 μM, 1 day, cell extract. Here is the method: Experiment 2 was designed to determine the effect of ATA, AQA, and AHA on the expression and release of Factor H and VEGF by U251 cells. Cells were grown in DMEM for 24 h at 37° C., after which ATA, AQA, or AHA was added to the medium at a final concentration of 10 μM and incubation carried out for a further 24 h. The medium was drawn off, and the cells washed with PBS. Lysis buffer was then added to the cells. Forty microliters of the cell lysate, or the supernatant media, were loaded onto 12% polyacrylamide gels and separated under non-reducing conditions (70 V, 3-6 h). Following SDS-PAGE, proteins were transferred to a PVDF membrane (Bio-Rad™, CA) at 30 mA for 2 h. The membranes were blocked with 5% milk in PBS-T (80 mM Na2HPO4, 20 mM NaH2PO4, 100 mM NaCl, 0.1% Tween 20, pH 7.4) for 1 h, and incubated overnight at 4° C. with primary antibodies for Factor H (Cytotech™, goat 1/1000) and for VEGF (Millipore™, rabbit 1/2000). The membranes were then washed 3 times with PBST. They were then treated with an appropriate horseradish peroxidase (HRP)-conjugated secondary antibody for 3 h at room temperature. The secondary antibodies were anti-rabbit IgG (P0448, DAKO™, Mississauga, Ontario, CA, 1/2,000) and anti-goat IgG (AP106P, Millipore™, Billerica, Ma, 1/3,000). […]

As to aurin quadracarboxylic acid [AQA], in the assay with Factor H [1], the “expression of Factor H in U251 cells” value is “reducing expression”. In the assay on Factor H [2], the “expression of Factor H in BxPC-3 cells” value was “reducing expression”. Moreover, in the assay on VEGF, the “expression of vascular endothelial growth factor (VEGF) in A549 cells” value is listed as “reduced expression” and the “release of VEGF into the extracellular milieu by A549 cells” value was “reducing release”. For the same substance, the “expression of Factor H in A549 cells” value in the assay on Factor H [3] is on record as “reduced expression”.

Regarding aurin hexacarboxylic acid [AHA], the “expression of Factor H in U251 cells” value in the assay on Factor H [1] is recorded as “reducing expression”. For the same substance, the “expression of Factor H in BxPC-3 cells” value in the assay on Factor H [2] is recorded as “reducing expression”. In the assay on VEGF, the “expression of vascular endothelial growth factor (VEGF) in A549 cells” value is on record as “reduced expression” and the “release of VEGF into the extracellular milieu by A549 cells” value is “reducing release”. The “expression of Factor H in A549 cells” value in the assay on Factor H [3] is “reduced expression”.
